Reference: article PMC3329717 (Journal of Medicinal Chemistry, 2012)

Experiments:
WEEV replicon [1] = system: WEEV replicon
WEEV replicon [2] = assay: microbe, parasite or virus in culture; settings: Western equine encephalitis virus, BSR-T7, read-out: IC50, inhibition of luciferase expression in the WEEV replicon assay
WEEV [3] = format: cell-based, western equine encephalitis virus
NSV [4] = format: cell-based, neuroadapted Sindbis virus
NSV [5] = system: NSV; parameters: species or system mice; settings: mouse, in vivo
NSV [6] = system: NSV; parameters: species or system mice; settings: mouse, in vivo; remark: listed apart in the source
NSV [7] = system: NSV; parameters: species or system mice; settings: mouse, in vivo; remark: listed apart in the source
Mouse liver microsome = settings: Balb-C, liver microsomes, pH 7.5
WEEV [8] = format: cell-based, western equine encephalitis virus; remark: listed apart in the source
NSV [9] = format: cell-based, neuroadapted Sindbis virus; remark: listed apart in the source
[10] = system: vaccine strain of Venezuelan equine encephalitis virus (VEEV); settings: mouse, in vivo; cited from earlier work
wild-type VEEV = settings: in vivo; cited from earlier work
[11] = Parallel Artificial Membrane Permeability Assay; settings: PAMPA

Molecule	CC50/IC50 (therapeutic index) (WEEV replicon [1])	IC50 (WEEV replicon [2]) [µM]	also measured
O=C(NCCc1ccccc1)C1CCN(C(=O)c2cc3ccccc3n2Cc2ccc(Cl)cc2)CC1 [Compound 9e, 1-(1-(4-chlorobenzyl)-1H-indole-2-carbonyl)-N-phenethylpiperidine-4-carboxamide]	4.1	15.2 ± 9.3	–
O=C(NCc1cccnc1)C1CCN(C(=O)c2cc3ccccc3n2Cc2ccc(Cl)cc2)CC1 [Compound 9m, 1-(1-(4-chlorobenzyl)-1H-indole-2-carbonyl)-N-(pyridin-3-ylmethyl)piperidine-4-carboxamide]	>8.7	11.4 ± 0.4	–
O=C(NCc1ccccc1)C1CCCN(C(=O)c2cc3ccccc3n2Cc2ccc(Cl)cc2)C1 (stereo not drawn) [Compound 9c, N-benzyl-1-(1-(4-chlorobenzyl)-1H-indole-2-carbonyl)piperidine-3-carboxamide]	>3.3	30.6 ± 7.3	–
C[C@@H](NC(=O)C1CCN(C(=O)c2cc3ccccc3n2Cc2ccc(Cl)cc2)CC1)c1ccccc1 [Compound 9h, (R)-1-(1-(4-chlorobenzyl)-1H-indole-2-carbonyl)-N-(1-phenylethyl)piperidine-4-carboxamide]	14	6.5 ± 1.5	WEEV titers (virion production, plaque assay) (WEEV [3]): significantly reduced; NSV titers (virion production, plaque assay) (NSV [4]): significantly reduced; Development of severe hind limb paralysis (NSV [5]): conferred benefit against the development of severe hind limb paralysis; Pilot survival assays, dose comparison (NSV [5]): the higher concentration was more effective; Survival after lethal NSV infection (NSV [5]): significantly protected from lethal NSV infection; Viral titers in brain (NSV [6]): viral titers were lower; Viral titers in spinal cord (NSV [6]): A similar extent of viral inhibition was also observed; Neuronal injury in hippocampus (proportion of fluorojade-positive neurons) (NSV [7]): reduced neuronal injury; half-life at 1 µM (Mouse liver microsome): 31 ± 7.1 min
C[C@H](c1ccc(F)cc1)n1c(C(=O)N2CCC(C(=O)NCc3ccccc3)CC2)cc2sccc21 [Compound 5e, (R)-N-benzyl-1-(4-(1-(4-fluorophenyl)ethyl)-4H-thieno[3,2-b]pyrrole-5-carbonyl)piperidine-4-carboxamide]	>5.4	18.4 ± 4.7	–
O=C(NCc1ccncc1)C1CCN(C(=O)c2cc3ccccc3n2Cc2ccc(Cl)cc2)CC1 [Compound 9l, 1-(1-(4-chlorobenzyl)-1H-indole-2-carbonyl)-N-(pyridin-4-ylmethyl)piperidine-4-carboxamide]	>14	6.8 ± 1.7	–
O=C(c1cc2ccccc2n1Cc1ccc(Cl)cc1)N1CCC(C(=O)N2CCCCC2)CC1 [Compound 9k, (1-(4-chlorobenzyl)-1H-indol-2-yl)(4-(piperidine-1-carbonyl)piperidin-1-yl)methanone]	5.6	9.2 ± 2.8	–
NC(=O)c1ncn([C@@H]2O[C@H](CO)[C@@H](O)[C@H]2O)n1 [Ribavirin, reference compound]	–	16	–
O=C(NCc1cccc(Cl)c1)C1CCN(C(=O)c2cc3ccccc3n2Cc2ccc(Cl)cc2)CC1 [Compound 9j, N-(3-chlorobenzyl)-1-(1-(4-chlorobenzyl)-1H-indole-2-carbonyl)piperidine-4-carboxamide]	>6.5	15.3 ± 9	–
C[C@H](NC(=O)C1CCN(C(=O)c2cc3ccccc3n2Cc2ccc(Cl)cc2)CC1)c1ccccc1 [Compound 9g, (S)-1-(1-(4-chlorobenzyl)-1H-indole-2-carbonyl)-N-(1-phenylethyl)piperidine-4-carboxamide]	–	> 100	Increase in cell viability after WEEV infection (reduction in CPE) (WEEV [8]): unable to rescue virus-induced CPE; Increase in cell viability after NSV infection (reduction in CPE) (NSV [9]): unable to rescue virus-induced CPE; WEEV titers (virion production, plaque assay) (WEEV [3]): inactive; NSV titers (virion production, plaque assay) (NSV [4]): inactive
O=C(Nc1ccccc1)C1CCN(C(=O)c2cc3ccccc3n2Cc2ccc(Cl)cc2)CC1 [Compound 9d, 1-(1-(4-chlorobenzyl)-1H-indole-2-carbonyl)-N-phenylpiperidine-4-carboxamide]	–	> 50	–
O=C(NCc1ccccc1)C1CCN(C(=O)c2cc3ccccc3n2Cc2ccc(Cl)cc2)CC1 [Compound 9b, N-benzyl-1-(1-(4-chlorobenzyl)-1H-indole-2-carbonyl)piperidine-4-carboxamide]	>6.5	15.5 ± 5.6	WEEV titers (virion production, plaque assay) (WEEV [3]): significantly reduced; NSV titers (virion production, plaque assay) (NSV [4]): significantly reduced; half-life at 1 µM (Mouse liver microsome): 7.3 ± 3.9 min
Cc1ccc(CCNC(=O)C2CCN(C(=O)c3cc4ccccc4n3Cc3ccc(Cl)cc3)CC2)cc1 [Compound 9f, 1-(1-(4-chlorobenzyl)-1H-indole-2-carbonyl)-N-(4-methylphenethyl)piperidine-4-carboxamide]	14	5.5 ± 2.2	–
O=C(NCc1ccccc1)C1CCN(C(=O)c2cc3ccccc3n2Cc2ccc(F)cc2)CC1 [Compound 9a, N-benzyl-1-(1-(4-fluorobenzyl)-1H-indole-2-carbonyl)piperidine-4-carboxamide]	>6.7	14.8 ± 5.8	–
(−)-carbodine	–	–	Disease outcome [10]: improved outcome; Lowering of peak CNS viral titers [10]: half-log; Benefit after wild-type VEEV challenge (wild-type VEEV): no benefit
COc1ccc(CNC(=O)C2CCN(C(=O)c3cc4ccccc4n3Cc3ccc(Cl)cc3)CC2)cc1 [Compound 9i, 1-(1-(4-chlorobenzyl)-1H-indole-2-carbonyl)-N-(4-methoxybenzyl)piperidine-4-carboxamide]	–	> 50	–
C[C@H](NC(=O)C1CCN(C(=O)c2cc3sccc3n2Cc2ccc(F)cc2)CC1)c1ccccc1 [Compound 5c, (S)-1-(4-(4-fluorobenzyl)-4H-thieno[3,2-b]pyrrole-5-carbonyl)-N-(1-phenylethyl)piperidine-4-carboxamide]	–	> 100	–
O=C(NCc1ccccc1)C1CCN(C(=O)c2cc3sccc3n2Cc2ccc(Cl)cc2)CC1 [Compound 5b, N-benzyl-1-(4-(4-chlorobenzyl)-4H-thieno[3,2-b]pyrrole-5-carbonyl)piperidine-4-carboxamide]	>9.9	10.1 ± 2.6	WEEV titers (virion production, plaque assay) (WEEV [3]): significantly reduced; NSV titers (virion production, plaque assay) (NSV [4]): significantly reduced; half-life at 1 µM (Mouse liver microsome): 1.7 ± 1.7 min; Papp [11]: 251 ×10⁻⁶ cm/s
O=C(NCc1ccccc1)C1CCN(C(=O)c2cc3sccc3n2Cc2ccc(F)cc2)CC1 [Compound 5a, N-benzyl-1-(4-(4-fluorobenzyl)-4H-thieno[3,2-b]pyrrole-5-carbonyl)piperidine-4-carboxamide]	>3.9	25.4 ± 7.3	–
C[C@@H](c1ccc(F)cc1)n1c(C(=O)N2CCC(C(=O)NCc3ccccc3)CC2)cc2sccc21 [Compound 5f, (S)-N-benzyl-1-(4-(1-(4-fluorophenyl)ethyl)-4H-thieno[3,2-b]pyrrole-5-carbonyl)piperidine-4-carboxamide]	–	> 100	–
C[C@@H](NC(=O)C1CCN(C(=O)c2cc3sccc3n2Cc2ccc(F)cc2)CC1)c1ccccc1 [Compound 5d, (R)-1-(4-(4-fluorobenzyl)-4H-thieno[3,2-b]pyrrole-5-carbonyl)-N-(1-phenylethyl)piperidine-4-carboxamide]	11	8.3 ± 1.3	–
